Measured values from patent US20070197643A1, “USE OF (Z)-2-CYANO-3-HYDROXY-BUT-2-ENOIC ACID-(4'-TRIFLUOROMETHYLPHENYL)-AMIDE FOR TREATING INFLAMMATORY BOWEL DISEASE” (AVENTIS PHARMACEUTICALS INC., priority 2004, published 2007).

How the values were obtained:
[1] = amount entering the intestinal lumen after administration; assay type: in vivo; settings: following administration of teriflunomide
[2] = target: dihydrooate dehydrogenase (Homo sapiens, UniProt Q02127); settings: enzyme essential for the synthesis of pyrimidines; cited from earlier work
[3] = tested on: immune cells and cell lines; settings: wide variety of immune cells and cell lines; cited from earlier work
inflammation = settings: animal models of inflammation; cited from earlier work
multiple sclerosis = settings: in vivo; cited from earlier work
Crohn's disease = settings: small number of patients with azathioprine intolerance; cited from earlier work

Sequence of dihydrooate dehydrogenase (Q02127 whole entry): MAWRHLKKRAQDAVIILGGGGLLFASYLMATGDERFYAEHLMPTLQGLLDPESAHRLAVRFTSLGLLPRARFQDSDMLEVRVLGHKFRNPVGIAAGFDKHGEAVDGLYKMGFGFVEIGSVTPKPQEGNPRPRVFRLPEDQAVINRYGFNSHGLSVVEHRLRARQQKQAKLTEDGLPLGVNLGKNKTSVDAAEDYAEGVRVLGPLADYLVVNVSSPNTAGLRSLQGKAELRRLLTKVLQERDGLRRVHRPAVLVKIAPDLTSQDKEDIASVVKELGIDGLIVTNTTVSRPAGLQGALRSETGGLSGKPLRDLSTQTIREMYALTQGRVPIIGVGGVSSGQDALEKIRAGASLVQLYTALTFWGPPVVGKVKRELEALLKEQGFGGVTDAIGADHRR

SMILES	amount of teriflunomide entering the intestinal lumen [1]	inhibition of dihydrooate dehydrogenase [2]	antiproliferative effects [3]	anti-inflammatory activity (inflammation)	efficacy in preclinical models of multiple sclerosis (multiple sclerosis)	treatment of Crohn's disease (Crohn's disease)
C/C(O)=C(\C#N)C(=O)Nc1ccc(C(F)(F)F)cc1 [Teriflunomide, (Z)-2-cyano-3-hydroxy-but-2-enoic acid-(4′-trifluoromethylphenyl)-amide]	high amounts	inhibits	antiproliferative effects	anti-inflammatory activity	demonstrated efficacy	
Cc1oncc1C(=O)Nc1ccc(C(F)(F)F)cc1 [leflunomide, 5-methylisoxazole-4-carboxylic-(4-trifluoromethyl)-anilide]						successful use
